# Literature values in patent US20200396993A1, “COMPOSITIONS AND METHODS FOR RELEASE OF CYCLOPROPENES” (Hazel Technologies, Inc., priority 2017, published 2020).
# Details: in water
smiles,measurement,value
"CC1=CC1 [Sample 1-MCP, 1-methylcyclopropene]",solubility,137 µg/mL
